Reference: ChEMBL document CHEMBL1201862, “PubChem BioAssay data set” (2004)
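Five concentrations, 48 hours, 96-well plates. GI50 is the concentration that inhibits growth by half.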 Active and inactive are the calls of the source. No stated cut-off is given here; in the data, active = GI50 up to about 1.1 µM and inactive = higher.

Assays:
Experiment in all cases: NCI-60 cell line screen, 48 h
UO-31 = test system: UO-31
HCT-116 = test system: HCT-116
SR = test system: SR
LOX IMVI = test system: LOX IMVI
HOP-62 = test system: HOP-62
OVCAR-8 = test system: OVCAR-8
SF-268 = test system: SF-268
SK-OV-3 = test system: SK-OV-3
ACHN = test system: ACHN
SF-295 = test system: SF-295
MDA-MB-231 = test system: MDA-MB-231
NCI-H226 = test system: NCI-H226
HCC 2998 = test system: HCC 2998
A498 = test system: A498
BT-549 = test system: BT-549
RPMI-8226 = test system: RPMI-8226
PC-3 = test system: PC-3
UACC-62 = test system: UACC-62
U-251 = test system: U-251

| SMILES | GI50 (UO-31) | GI50 (HCT-116) | GI50 (SR) | GI50 (LOX IMVI) | GI50 (HOP-62) | GI50 (OVCAR-8) | GI50 (SF-268) | GI50 (SK-OV-3) | GI50 (ACHN) | GI50 (SF-295) | GI50 (MDA-MB-231) | GI50 (NCI-H226) | GI50 (HCC 2998) | GI50 (A498) | GI50 (BT-549) | GI50 (RPMI-8226) | GI50 (PC-3) | GI50 (UACC-62) | GI50 (U-251) |
| --- | --- | --- | --- | --- | --- | --- | --- | --- | --- | --- | --- | --- | --- | --- | --- | --- | --- | --- | --- |
| COC(=O)C(=O)C(C(=O)C(=O)Nc1ccccc1C(C)=O)c1nc2ccc(C(=O)c3ccccc3)cc2nc1O (stereo not drawn) | 26.7 µM (inactive) | > 100 µM (inactive) | 3.77 µM (inactive) | > 100 µM (inactive) | 45.2 µM (inactive) | 39.6 µM (inactive) | 68.2 µM (inactive) | > 100 µM (inactive) | 73.8 µM (inactive) | 45.1 µM (inactive) | 78 µM (inactive) | 98.2 µM (inactive) | 78.3 µM (inactive) | > 100 µM (inactive) | > 100 µM (inactive) | 63.1 µM (inactive) | 44 µM (inactive) | > 100 µM (inactive) | – |
| CCC1=[N+](CC)CCN1CC | > 100 µM (inactive) | > 100 µM (inactive) | > 100 µM (inactive) | > 100 µM (inactive) | > 100 µM (inactive) | > 100 µM (inactive) | > 100 µM (inactive) | > 100 µM (inactive) | > 100 µM (inactive) | > 100 µM (inactive) | > 100 µM (inactive) | > 100 µM (inactive) | > 100 µM (inactive) | > 100 µM (inactive) | > 100 µM (inactive) | > 100 µM (inactive) | > 100 µM (inactive) | – | > 100 µM (inactive) |
| CCCCCCCCCCCCNC(=O)NCC(OCC)OCC | – | > 10 µM (inactive) | > 10 µM (inactive) | > 10 µM (inactive) | > 10 µM (inactive) | > 10 µM (inactive) | > 10 µM (inactive) | > 10 µM (inactive) | > 10 µM (inactive) | > 10 µM (inactive) | > 10 µM (inactive) | > 10 µM (inactive) | > 10 µM (inactive) | > 10 µM (inactive) | > 10 µM (inactive) | > 10 µM (inactive) | > 10 µM (inactive) | > 10 µM (inactive) | > 10 µM (inactive) |
| CCCCCCCCCCCCCCCCCCNC(=S)NC=C1C(=O)c2ccccc2C1=O | 10.3 µM (inactive) | 4.08 µM (inactive) | 2.75 µM (inactive) | 3.9 µM (inactive) | 9.86 µM (inactive) | 13.2 µM (inactive) | 5.62 µM (inactive) | 16 µM (inactive) | 10.9 µM (inactive) | 13.6 µM (inactive) | 10.9 µM (inactive) | 8.32 µM (inactive) | 2.13 µM (inactive) | 19.2 µM (inactive) | 15.7 µM (inactive) | 14.2 µM (inactive) | 3.83 µM (inactive) | – | 4.73 µM (inactive) |
| CCOC(=O)C(Cc1c2ccccc2cc2ccccc12)(NC(C)=O)C(=O)OCC | > 85.9 µM (inactive) | 48.9 µM (inactive) | 70.5 µM (inactive) | > 100 µM (inactive) | > 56 µM (inactive) | 67.6 µM (inactive) | 36.9 µM (inactive) | > 100 µM (inactive) | > 63.1 µM (inactive) | > 65.9 µM (inactive) | > 23.1 µM (inactive) | 62.1 µM (inactive) | > 100 µM (inactive) | 55.5 µM (inactive) | 99.8 µM (inactive) | > 100 µM (inactive) | 50 µM (inactive) | – | > 80.5 µM (inactive) |
| COc1cc2c(c(OC)c1OC)-c1ccc(SC)cc1[C@H](OC(=O)c1ccccc1)CC2 | 0.145 µM (active) | 0.0817 µM (active) | 0.0247 µM (active) | 0.0743 µM (active) | – | 0.158 µM (active) | 0.214 µM (active) | 5.04 µM (inactive) | 0.189 µM (active) | 0.0809 µM (active) | 0.284 µM (active) | 0.237 µM (active) | 0.32 µM (active) | 0.437 µM (active) | 0.309 µM (active) | 0.0424 µM (active) | 0.0673 µM (active) | 0.0753 µM (active) | 0.071 µM (active) |
